This test concerns Mycobacterium tuberculosis H37Rv growth inhibition, no glycerol. In words: Confirmatory growth inhibition assay, Mycobacterium tuberculosis H37Rv, absence of glycerol (AID 449764).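 For all read-outs here: growth read after 7 days of incubation.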 The settings on record: for IC90: measured here: IC90 growth inhibition.

For the compound `CC(OC(=O)c1cc(Cl)ccc1[N+](=O)[O-])C(=O)NC(C)c1ccc(F)cc1` (stereo unspecified), the IC50 – broadly, the point on the concentration scale where inhibition reaches its midpoint – is 27.6 µM and the 90% effect concentration (IC90) (in general, the concentration needed for an effect of 90%) was above 100 µM.

Turning to `O=C(CCl)N1CCN2C(=O)c3ccccc3C12c1ccc(Cl)cc1` (stereo unspecified), the IC50 was 21.9 µM and the IC90 was 32.1 µM. With `O=C(OCc1ccccc1)/C(=C(\O)c1ccccc1Br)c1ccc(-c2ccccc2)cn1`, the IC50 is 35.4 µM and the IC90 came out at 49.3 µM. The like results for `COc1ccc(OCc2cccc(C(=O)Nn3cc([N+](=O)[O-])cn3)c2)cc1` were, in that order, 26.2 µM and 42.9 µM. `CC1CC(C)(C)Nc2ccc(OC(=O)c3ccco3)cc21` (stereo unspecified): the half-maximal inhibitory concentration (IC50) is 21.7 µM and the IC90 amounted to 29.5 µM. The like results for `c1ccc2nc(-c3ccc(-n4ccnc4)cc3)ccc2c1` were, in that order, 31 µM and 42.5 µM. In the case of `CCOC(=O)CSc1nsc(SCC(=O)OCC)c1C#N`, the IC50 is 11.9 µM and the IC90 came out at 13.5 µM. Turning to `CC(C)(C)c1ccc(-c2nc(-c3ccncc3)no2)cc1`, the IC50 is 35.2 µM and the IC90 is 47.6 µM. Take `CC/C(=C(\c1ccc(O)cc1)c1ccc(OCCN(C)C)cc1)c1ccccc1`: the IC50 was 26.5 µM and the IC90 amounted to 45 µM. `CCOC(=O)c1ccc(NC(=O)Cn2ncc(Cl)c(Cl)c2=O)cc1`: the IC50 is below 0.2 µM and the IC90 worked out at 2.19 µM. Consider `O=C(OCC(=O)N1CCN(c2ccccc2)CC1)c1cnc(Cl)c(Cl)c1`, for which the IC50 is 27 µM and the IC90 came out at 58.1 µM. The like results for `CC(C)=CCOc1ccc([C@@H]2COc3c(ccc4c3C=CC(C)(C)O4)C2)c(O)c1` were, in that order, 25.4 µM and 43 µM. On to `Cc1cc(C)n2nc(/C(C#N)=C/c3ccccn3)c(C#N)c2n1`, for which the IC50 is 19.4 µM and the IC90 was 35.5 µM.

On to `CSc1nc2nc3c(c(=O)n2[nH]1)CCCC3`, for which the IC50 is 23.8 µM and the IC90 was above 100 µM. Regarding `O=C(C/C=N\OCc1ccc([N+](=O)[O-])cc1)Nc1ccc(F)cc1F`, the IC50 is 82.9 µM and the IC90 is above 100 µM.

Take `COc1ccc(C2CC2/C(C)=N/OC(=O)c2ccc(F)cc2)cc1` (stereo unspecified): the IC50 is 25.3 µM and the IC90 amounted to 52.2 µM.

As to `Cc1ccc2c(c1)nnn2C1CCN(CC(=O)N2CCN(c3ccc(F)cc3)CC2)CC1`, the IC50 is 36.8 µM and the IC90 was 54.7 µM.

Consider `Cc1ccc(-c2c[n+](CC(=O)N3c4ccccc4Sc4ccccc43)c3n2CCC3)cc1`, for which the IC50 is 22.9 µM and the IC90 was determined as 26.1 µM.

Take `O=[N+]([O-])c1cc(C=Nc2ccc3ccccc3c2)ccc1Br`: the concentration for half-maximal inhibition (IC50) is 34.5 µM and the IC90 came out at 44.5 µM. The like results for `Cc1c(Cl)cccc1NC(=O)CN1CCC(C(O)(c2ccccc2)c2ccccc2)CC1` were, in that order, 45.1 µM and above 100 µM. Consider `CC(/C=N/NC(=O)c1cc(-c2ccc3ccccc3c2)n[nH]1)=C\c1ccco1`, for which the IC50 was 43.8 µM and the IC90 amounted to 66.8 µM. The like results for `CCOc1ccc2nc(NC(=O)C34CC5CC(CC(NC(C)=O)(C5)C3)C4)sc2c1` were, in that order, 23.2 µM and 38.4 µM. Turning to `COc1cccc2c1C(=O)c1c(O)c3c(c(O)c1C2=O)C[C@@](O)(C(=O)CO)C[C@@H]3O[C@H]1C[C@H](N)[C@@H](O)[C@H](C)O1`, the IC50 was 5.87 µM and the concentration for an effect of 90% (IC90) was 6.6 µM. The matching figures for `Cc1ccc(-n2nc(C)c3c(C)c(CCC(=O)Nc4ccc(CN5CCCC5)cc4)c(C)nc32)cc1`: 15.7 µM and 22.1 µM. The like results for `CCOc1cc(/C=N/Nc2nc(Nc3ccccc3)nc(N3CCCCC3)n2)ccc1OCC(=O)O` were, in that order, 20.5 µM and 27.6 µM. As to `COc1ccccc1-c1cc(C(=O)NC2CCN(C)CC2)c2ccc(Cl)c(C)c2n1`, the IC50 is 83.5 µM and the 90% effect concentration (IC90) is above 100 µM. The like results for `Cn1nc(C(C)(C)C)cc1NC(=O)Nc1cc(Cl)cc(Cl)c1` were, in that order, 18.2 µM and 25.6 µM. As for `CN1CCN(Cc2nc3ccccc3c(=O)n2Cc2nc(-c3ccc4ccccc4c3)cs2)CC1`, the half-inhibitory concentration (IC50) was 20.7 µM and the IC90 amounted to 28.5 µM.

As to `Cc1ccc(-c2noc(-c3cc4ccccc4oc3=O)n2)cc1`, the IC50 is 11.4 µM and the IC90 is above 100 µM. The matching figures for `CC1(c2nnc(-c3ccncc3)o2)CC(c2ccccc2)=NO1` (stereo unspecified): 68.5 µM and above 100 µM. The like results for `CCC1(c2ccccc2)ON(c2c(Br)cccc2Br)C1=O` (stereo unspecified) were, in that order, 40.2 µM and 77.3 µM. The like results for `CC(C)Cn1c([N+](=O)[O-])nc2c1c(=O)[nH]c(=O)n2C` were, in that order, 9.69 µM and 14.5 µM. As to `O=C(C[n+]1ccc(C(=O)c2ccccc2)cc1)Nc1ccc(C(F)(F)F)cc1`, the IC50 is 23.4 µM and the IC90 came out at 26.7 µM. The like results for `CCn1c(C)nc2cc(C(=O)OC(C(F)(F)C(F)F)C(F)(F)C(F)F)ccc21` were, in that order, 21.2 µM and 25.8 µM. As for `Fc1cccc(CCN2CCNC[C@H]2Cc2cccc3ccccc23)c1`, the IC50 is 35.5 µM and the IC90 worked out at 46.3 µM. Take `CC(=O)c1cccc2c(O)c(C3=Nc4ccccc4C3=O)[nH]c12`: the IC50 is 11.5 µM and the IC90 is 12.9 µM. The like results for `CCN1CCN(Cc2ccc(NC(=O)c3ccc(C)c(/C=C/c4cnc(Nc5cc(N6CCNCC6)nc(C)n5)cn4)c3)cc2C(F)(F)F)CC1` were, in that order, 66.6 µM and 89.8 µM. The like results for `O=S(Cc1ccc(Br)cc1)Cc1nnc(SCc2ccc(Cl)cc2)n1-c1ccccc1` (stereo unspecified) were, in that order, 83.2 µM and above 100 µM. Turning to `c1ccc(-c2nc3c(ccc4ccccc43)[nH]2)nc1`, the half-inhibitory concentration (IC50) is 31.4 µM and the 90% effect concentration (IC90) worked out at 68.5 µM.

For `CC1=NNC(=O)/C1=C\c1cn(-c2ccccc2)nc1-c1ccc(Cl)cc1`, the IC50 was 45.2 µM and the IC90 is 48.8 µM. The like results for `Oc1ccccc1NCC(O)Cn1ccc2ccccc21` (stereo unspecified) were, in that order, 11.5 µM and 12.3 µM. The like results for `CCc1cccc2c(C(=O)CCl)c[nH]c12` were, in that order, 4.05 µM and 7.83 µM. The like results for `CC(=O)/C=C(\C)Nc1ccccc1O` were, in that order, 4.45 µM and 5.87 µM. With `O=C(Nc1nc2nc(-c3ccccc3)cc(=O)n2[nH]1)c1ccccc1`, the IC50 is 22.8 µM and the IC90 was above 100 µM.

In the case of `CCOC(=O)C1CCN(c2cc3c(cc2NC(=O)c2ccccc2Cl)n(C)c(=O)n3C)CC1`, the IC50 was 44.8 µM and the IC90 was 51.2 µM.

For `Cc1[nH]c2ccc(OC(F)(F)F)cc2c1CCNCc1ccc(Cl)cc1`, the IC50 is 14.2 µM and the IC90 was determined as 18.8 µM. The like results for `Cn1cc(NC(=O)CCl)cn1` were, in that order, 8.55 µM and 16.1 µM. With `c1ccc(CN2CCC3(CCCc4ccccc43)CC2)cc1`, the IC50 is 12.2 µM and the IC90 came out at 15.8 µM. The matching figures for `CC1=NN(C(=O)c2ccc(Br)cc2)C(O)(c2ccccc2)C1` (stereo unspecified): 42.3 µM and 52.6 µM. The compound `Fc1nc(F)c(F)c(NCCCNc2c(F)c(F)nc(F)c2F)c1F` showed an IC90 above 100 µM. In the case of `CCc1cc(OCCCCNCc2ccccc2)ccc1Cl`, the IC50 is 26.9 µM and the IC90 came to 36 µM.

(Values after PubChem BioAssay AID449764 (Southern Research Specialized Biocontainment Screening …, 2010).)
